# Source: patent publication US9167821B2 (priority 2009, dated 2015)
# Tests used:
# Phytophthora infestans = test: whole plant or invertebrate; format: in vivo; details: for efficacy: tomato plants, protective spray, 10 ppm active ingredient, evaluation 3 days after inoculation, 0% = control, 100% = no infection; for pest or weed control at 10 ppm: Phytophthora infestans, in Solanum lycopersicum, 72 h, read-out: efficacy
# Plasmopara viticola = test: Plasmopara test (grapevine)/protective; format: in vivo; details: grapevine plants, protective spray, 10 ppm active ingredient, evaluation 6 days after inoculation, 0% = control, 100% = no infection; for pest or weed control at 10 ppm: Plasmopara viticola, 144 h, read-out: efficacy
# Procedure: Plasmopara Test (Grapevine)/Protective
# To prepare an appropriate active ingredient preparation, 1 part by weight of active ingredient is mixed with the stated amounts of solvent and emulsifier, and the concentrate is diluted with water to the desired concentration.
# To test for protective efficacy, young plants are sprayed with the active ingredient preparation at the stated application rate. After the spray coating has dried on, the plants are inoculated with an aqueous spore suspension of Plasmopara viticola and then remain in an incubation cabinet at about 20° C. and 100% relative atmospheric humidity for 1 day. The plants are then placed in a greenhouse at approx. 21° C. and approx. 90% air humidity for 4 days. The plants are then moistened and placed in an incubation cabinet for 1 day.
# Evaluation follows 6 days after the inoculation.
# Peronospora brassicae = test: Peronospora test (rapeseed)/seed treatment; format: in vivo; details: 50 g/dt active ingredient, greenhouse, infected leaf area per plant, 0% = control, 100% = no infestation
# Procedure: Peronospora Test (Rapeseed)/Seed Treatment
# The test was carried out under greenhouse conditions.
# To produce an active ingredient preparation, the active ingredient was dissolved in N-methyl-2-pyrrolidone and the concentrate was diluted with water to the desired concentration. The rapeseeds treated with this solution were sown in 6*6 cm pots which had been filled to a height of 4 cm with a 1:1 mixture of steam-treated soil and sand. Then the plants were cultivated at 10° C.
# After 14 days, the plants were inoculated with an aqueous spore suspension of Peronospora brassicae. Subsequently, the plants were placed in a greenhouse at approx. 15° C. and 100% air humidity for 7 days.
# The evaluation was effected by assessing the infected leaf area per plant. 0% means an efficiency which corresponds to that of the control, while an efficiency of 100% means that no infestation is observed.
# [1] = for logp [b]: pH 2.7; for logp [c]: pH 7.8; for logp [a]: pH 2.3
# Description: (§1) The determination is effected in the acidic range at pH 2.3 using 0.1% aqueous phosphoric acid and acetonitrile as eluents; linear gradient from 10% acetonitrile to 95% acetonitrile. • ^[b] The LC-MS determination in the acidic range is effected at pH 2.7 using 0.1% aqueous formic acid and acetonitrile (contains 0.1% formic acid) as eluents; linear gradient from 10% acetonitrile to 95% acetonitrile. • ^[c] The LC-MS determination in the neutral range is effected at pH 7.8 using 0.001 molar aqueous ammonium hydrogencarbonate solution and acetonitrile as eluents; linear gradient from 10% acetonitrile to 95% acetonitrile.
# (§2) The calibration is effected with unbranched alkan-2-ones (having 3 to 16 carbon atoms) with known log P values (determination of the log P values using the retention times by linear interpolation between two successive alkanones).
# Description for physchem: as §1, §2
Structure (SMILES),efficacy (Phytophthora infestans) [%],efficacy (Plasmopara viticola) [%],logp [b] [1],logp [c] [1],also measured
O=C(Cn1nc(C(F)F)cc1C(F)F)N1CCC(c2nc(C3=NOC(c4ccccc4)C3)cs2)CC1 (racemic) [I-1],95,100,3.17^[b];,3.11^[c],efficiency (Peronospora brassicae): 100%
O=C(Cn1nc(C(F)F)cc1C(F)F)N1CCC(c2nc(C3=NOC(c4c(F)cccc4F)C3)cs2)CC1 (racemic) [I-2],99,100,3.14^[b],–,–
O=C(Cn1nc(C(F)F)cc1C(F)F)N1CCC(F)(c2nc(C3=NOC(c4c(F)cccc4F)C3)cs2)CC1 (racemic) [I-6],94,100,3.43^[b];,3.34^[c],efficiency (Peronospora brassicae): 100%
CC(=O)c1cccc(C2CC(c3csc(C4CCN(C(=O)Cn5nc(C(F)F)cc5C(F)F)CC4)n3)=NO2)c1 (racemic) [I-8],97,99,2.78^[b],–,–
CC#CCOc1cccc(C2CC(c3csc(C4CCN(C(=O)Cn5nc(C(F)F)cc5C(F)F)CC4)n3)=NO2)c1 (racemic) [I-15],95,93,–,3.33^[c];,logp [a] [1]: 3.29^[a]
C#CCOc1cccc(C2CC(c3csc(C4CCN(C(=O)Cn5nc(C(F)F)cc5C(F)F)CC4)n3)=NO2)c1 (racemic) [I-21],98,100,–,3.16^[c];,logp [a] [1]: 3.24^[a]
C#CCOc1ccc(C2CC(c3csc(C4CCN(C(=O)Cn5nc(C(F)F)cc5C(F)F)CC4)n3)=NO2)cc1 (racemic) [I-22],98,97,–,3.08^[c],logp [a] [1]: 3.14^[a];
O=Cc1cccc(C2CC(c3csc(C4CCN(C(=O)Cn5nc(C(F)F)cc5C(F)F)CC4)n3)=NO2)c1 (racemic) [I-23],97,99,2.78^[b],–,–
CCC#CCOc1ccccc1C1CC(c2csc(C3CCN(C(=O)Cn4nc(C(F)F)cc4C(F)F)CC3)n2)=NO1 (racemic) [I-25],95,74,3.91^[b],–,–
C#CCOc1ccccc1C1CC(c2csc(C3CCN(C(=O)Cn4nc(C(F)F)cc4C(F)F)CC3)n2)=NO1 (racemic) [I-39],99,99,–,3.23^[c];,logp [a] [1]: 3.28^[a]
CS(=O)(=O)Nc1ccc(C2CC(c3csc(C4CCN(C(=O)Cn5nc(C(F)F)cc5C(F)F)CC4)n3)=NO2)cc1 (racemic) [I-40],95,91,2.41^[b],–,–
O=C(Cn1nc(C(F)F)cc1C(F)F)N1CCC(c2nc(C3=NOC(c4cccc(O)c4)C3)cs2)CC1 (racemic) [I-42],94,97,–,2.45^[c];,logp [a] [1]: 2.43^[a]
O=C(Cn1nc(C(F)F)cc1C(F)F)N1CCC(c2nc(-c3cc(-c4ccccc4)on3)cs2)CC1 [I-3],100,100,3.66^[b],–,–
"CC(=O)c1ccccc1C1CC(c2csc(C3CCN(C(=O)Cn4nc(C(F)F)cc4C(F)F)CC3)n2)=NO1 (stereo not drawn) [I-7, 1-(4-{4-[5-(2-Acetylphenyl)-4,5-dihydro-1,2-oxazol-3-yl]-1,3-thiazol-2-yl}piperidin-1-yl)-2-[3,5-bis(difluoromethyl)-1H-pyrazol-1-yl]ethanone]",–,–,–,–,"pest or weed control at 10 ppm (Phytophthora infestans): 97%; pest or weed control at 10 ppm (Plasmopara viticola): 100%; efficiency (Peronospora brassicae): 100%; chromatographic logP (physchem; pH 2.7, logp [b]): 3.08"
"CC(C)=CCOc1ccccc1C1CC(c2csc(C3CCN(C(=O)Cn4nc(C(F)F)cc4C(F)F)CC3)n2)=NO1 (stereo not drawn) [I-20, 2-[3,5-Bis(difluoromethyl)-1H-pyrazol-1-yl]-1-{4-[4-(5-{2-[(3-methylbut-2-en-1-yl)oxy]phenyl}-4,5-dihydro-1,2-oxazol-3-yl)-1,3-thiazol-2-yl]piperidin-1-yl}ethanone]",–,–,–,–,"pest or weed control at 10 ppm (Phytophthora infestans): 95%; pest or weed control at 10 ppm (Plasmopara viticola): 98%; chromatographic logP (physchem; pH 2.7, logp [b]): 4.19; chromatographic logP (physchem; pH 7.8, logp [c]): 4.11"
"O=Cc1ccccc1C1CC(c2csc(C3CCN(C(=O)Cn4nc(C(F)F)cc4C(F)F)CC3)n2)=NO1 (stereo not drawn) [I-26, 2-{3-[2-(1-{[3,5-Bis(difluoromethyl)-1H-pyrazol-1-yl]acetyl}piperidin-4-yl)-1,3-thiazol-4-yl]-4,5-dihydro-1,2-oxazol-5-yl}benzaldehyde]",–,–,–,–,"pest or weed control at 10 ppm (Phytophthora infestans): 97%; pest or weed control at 10 ppm (Plasmopara viticola): 100%; chromatographic logP (physchem; pH 2.7, logp [b]): 2.98"
"Nc1ccccc1C1CC(c2csc(C3CCN(C(=O)Cn4nc(C(F)F)cc4C(F)F)CC3)n2)=NO1 (stereo not drawn) [I-41, 1-(4-{4-[5-(2-Aminophenyl)-4,5-dihydro-1,2-oxazol-3-yl]-1,3-thiazol-2-yl}piperidin-1-yl)-2-[3,5-bis(difluoromethyl)-1H-pyrazol-1-yl]ethanone]",–,–,–,–,"pest or weed control at 10 ppm (Phytophthora infestans): 94%; pest or weed control at 10 ppm (Plasmopara viticola): 100%; chromatographic logP (physchem; pH 2.3): 2.7; chromatographic logP (physchem; pH 7.8, logp [c]): 2.71"
